Reference: patent US11964971B2, “Methods and compositions for modulating splicing” (Skyhawk Therapeutics, Inc., priority 2019, dated 2024)
Read-outs that look alike come from different tables or passages of the source.

Tests used:
[1] = tested on: MDR1-MDCK cell monolayers; conditions: dog, MDCK-MDR1, 120 min, 5 μM, pH 7.4
[2] = tested on: MDR1; assay: in vitro; conditions: dog; for Papp A→B at 120 min, 5 μM: MDCK-MDR1, pH 7.4, MDCK-MDR1: Papp A-B (10^−6, cm/s); for Papp B→A at 120 min, 5 μM: MDCK-MDR1, pH 7.4, MDCK-MDR1: Papp B-A (10^−6, cm/s)
[3] = tested on: SMN FL and SMN Δ7; assay: Quantitative splicing assay (SMN) in SMA patient fibroblasts (GM03813); format: cell-based; conditions: Homo sapiens, Fibroblast, read-out: SMN2 Splicing FL EC50 (nM)*
Description: Spinal muscular atrophy (SMA) patient fibroblasts (GM03813, Coriell) are plated in 96-well plates at 50,000 cells/well. […] Treated cells are lysed and cDNA synthesized using the Fast Advanced Cells-to-Ct kit (Thermofisher A35378) according to the manufacturer's instructions. 2 μL of each cDNA are used in qPCR reactions. […] Reactions are run in a Quant Studio 6 qPCR instrument with default settings.

[4] = tested on: SMN protein; assay: SMN protein assay (MSD) in SMA patient fibroblasts (GM03813); format: cell-based, human
In short: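 SMA patient fibroblasts GM03813 (7000 cells/well) treated 48 h with compounds from 2.5 μM to 0.6 nM. Lysate SMN protein quantified by MSD immunoassay against an SMN standard curve (1 to 19.5 μg/ml) on each plate, giving absolute amounts.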

[5] = tested on: MDR1 (P-gp); assay: MDCK-MDR1 permeability assay, blood-brain-barrier penetration potential; conditions: dog, MDCK-MDR1, pH 7.4, MDCK-MDR1 Efflux Ratio

| Compound | MDCK-MDR1: % Recov A-B (%) [1] | MDCK-MDR1: % Recov B-A (%) [1] | Papp A→B at 120 min, 5 μM [2] | Papp B→A at 120 min, 5 μM [2] | EC50 ([3]; class symbol) | EC50 [4] | efflux ratio at 120 min, 5 μM [5] | EC50 ([3]; given as number) |
| --- | --- | --- | --- | --- | --- | --- | --- | --- |
| CN(c1cnc(-c2cc(F)c(-c3cnn(C)c3)cc2O)cn1)[C@H]1C[C@]2(C)CC[C@@](C)(N2)[C@H]1F [Compound 58E2, 4-fluoro-2-(5-(((1R,2S,3S,5S)-2-fluoro-1,5-dimethyl-8-azabicyclo[3.2.1]octan-3-yl)(methyl)amino)pyrazin-2-yl)-5-(1-methyl-1H-pyrazol-4-yl)phenol] | 32% | 69% | 5.98 ×10⁻⁶ cm/s | 16.4 ×10⁻⁶ cm/s | 101 to 500 nM | 0.01 to 15 nM | 3 |  |
| CN(c1cnc(-c2ccc(-c3ccn(C)c(=O)c3)cc2O)cn1)[C@@H]1C[C@H]2CCC[C@H](N2)[C@@H]1F [Compound 5E1, 4-(4-(5-(((1S,2S,3R,5R)-2-fluoro-9-azabicyclo[3.3.1]nonan-3-yl)(methyl)amino)pyrazin-2-yl)-3-hydroxyphenyl)-1-methylpyridin-2(1H)-one] | 84% | 90% | 2.04 ×10⁻⁶ cm/s | 50.3 ×10⁻⁶ cm/s | 51 to 100 nM | 0.01 to 15 nM | 25 |  |
| COc1cc(-c2cc(O)c(-c3cnc(N(C)[C@H]4C[C@@H]5CCC(N5)[C@H]4F)cn3)cc2F)ncn1 (single isomer, unassigned) [Compound 34E2] | 21% | 66% | 3.76 ×10⁻⁶ cm/s | 7.23 ×10⁻⁶ cm/s | 51 to 100 nM | 16 to 50 nM | 2 |  |
| CN(c1cnc(-c2ccc(-c3cn[nH]c3)cc2O)cn1)[C@@H]1CC2COC[C@H](N2)[C@@H]1F (single isomer, unassigned) [Compound 72E1] | 90% | 112% | 8.21 ×10⁻⁶ cm/s | 60.9 ×10⁻⁶ cm/s | 501 to 10000 nM | 501 to 10000 nM | 7 |  |
| COc1cc(-c2ccc(-c3cnc(N(C)[C@H]4C[C@@H]5CCC(N5)[C@H]4F)cn3)c(O)c2)cnn1 (single isomer, unassigned) [Compound 26E2] | 41% | 67% | 3.16 ×10⁻⁶ cm/s | 23.9 ×10⁻⁶ cm/s | 101 to 500 nM | 16 to 50 nM | 8 |  |
| CN(c1cnc(-c2cc(F)c(-c3cn[nH]c3)cc2O)cn1)[C@@H]1C[C@@]2(C)CC[C@](C)(N2)[C@@H]1F [Compound 57E1, 4-fluoro-2-(5-(((1S,2R,3R,5R)-2-fluoro-1,5-dimethyl-8-azabicyclo[3.2.1]octan-3-yl)(methyl)amino)pyrazin-2-yl)-5-(1H-pyrazol-4-yl)phenol] | 37% | 59% | 5.9 ×10⁻⁶ cm/s | 18.8 ×10⁻⁶ cm/s | 101 to 500 nM | 16 to 50 nM | 3 |  |
| CN(c1cnc(-c2ccc(-c3cc[nH]c(=O)c3)cc2O)cn1)[C@H]1C[C@@H]2CC[C@@H](N2)[C@H]1F [Compound 76E2, 4-(4-(5-(((1R,2R,3S,5S)-2-fluoro-8-azabicyclo[3.2.1]octan-3-yl)(methyl)amino)pyrazin-2-yl)-3-hydroxyphenyl)pyridin-2(1H)-one] | 93% | 75% | 0.37 ×10⁻⁶ cm/s | 28.9 ×10⁻⁶ cm/s | 101 to 500 nM | 16 to 50 nM | 78 |  |
| CN(c1cnc(-c2ccc(-c3cnn(C)c3)cc2O)cn1)[C@@H]1C[C@H]2CCC(N2)[C@@H]1F (single isomer, unassigned) [Compound 3E1] | 56% | 66% | 8.42 ×10⁻⁶ cm/s | 22 ×10⁻⁶ cm/s | 101 to 500 nM | 16 to 50 nM | 3 |  |
| CN(c1cnc(-c2ccc(-c3cn[nH]c3)cc2O)cn1)[C@H]1C[C@@H]2CCC(N2)[C@@H]1F (single isomer, unassigned) [Compound 27E2] | 80% | 85% | 4.45 ×10⁻⁶ cm/s | 40.6 ×10⁻⁶ cm/s | 101 to 500 nM | 16 to 50 nM | 9 |  |
| COc1cc(-c2ccc(-c3cnc(N(C)[C@H]4C[C@]5(C)CC[C@@](C)(N5)[C@H]4F)cn3)c(O)c2)cnn1 [Compound 25E2, 2-(5-(((1R,2S,3S,5S)-2-fluoro-1,5-dimethyl-8-azabicyclo[3.2.1]octan-3-yl)(methyl)amino)pyrazin-2-yl)-5-(6-methoxypyridazin4-yl)phenol] | 42% | 70% | 5.01 ×10⁻⁶ cm/s | 22.9 ×10⁻⁶ cm/s | 501 to 10000 nM | 101 to 500 nM | 5 |  |
| CN(c1cnc(-c2cc(F)c(-c3cn[nH]c3)cc2O)cn1)[C@H]1C[C@]2(C)CC[C@@](C)(N2)[C@H]1F [Compound 57E2, 4-fluoro-2-(5-(((1R,2S,3S,5S)-2-fluoro-1,5-dimethyl-8-azabicyclo[3.2.1]octan-3-yl)(methyl)amino)pyrazin-2-yl)-5-(1H-pyrazol-4-yl)phenol] | 35% | 64% | 5.8 ×10⁻⁶ cm/s | 20 ×10⁻⁶ cm/s | 501 to 10000 nM | 0.01 to 15 nM | 3 |  |
| CN(c1cnc(-c2ccc(-c3cnn(C)c3)cc2O)cn1)[C@H]1C[C@@H]2CCC(N2)[C@H]1F (single isomer, unassigned) [Compound 16E2] | 54% | 86% | 7.68 ×10⁻⁶ cm/s | 28.4 ×10⁻⁶ cm/s | 101 to 500 nM | 16 to 50 nM | 4 |  |
| CN(c1cnc(-c2ccc(C3=CC(=O)NC3)cc2O)cn1)[C@H]1C[C@@H]2CCC(N2)[C@H]1F (single isomer, unassigned) [Compound 78E2] | 94% | 82% | 0.56 ×10⁻⁶ cm/s | 30.7 ×10⁻⁶ cm/s | 501 to 10000 nM | 16 to 50 nM | 55 |  |
| CNC(=O)/C=C/c1cc(O)c(-c2cnc(N(C)[C@H]3C[C@]4(C)CC[C@@](C)(N4)[C@H]3F)cn2)cc1F [Compound 61E2, (E)-3-(2-fluoro-4-(5-(((1R,2S,3S,5S)-2-fluoro-1,5-dimethyl-8-azabicyclo[3.2.1]octan-3-yl)(methyl)amino)pyrazin-2-yl)-5-hydroxyphenyl)-N-methylacrylamide] | 86% | 89% | 0.77 ×10⁻⁶ cm/s | 41.9 ×10⁻⁶ cm/s | 501 to 10000 nM | 0.01 to 15 nM | 54 |  |
| CN(c1cnc(-c2cc(F)c(-c3ccn(C)c(=O)c3)cc2O)cn1)[C@H]1C[C@@H]2CCC(N2)[C@H]1F (single isomer, unassigned) [Compound 13E2] | 80% | 87% | 1.97 ×10⁻⁶ cm/s | 40.8 ×10⁻⁶ cm/s |  | 0.01 to 15 nM | 21 | 398 nM |
| COc1cc(-c2ccc(-c3cnc(N(C)[C@H]4C[C@@H]5COCC(N5)[C@H]4F)cn3)c(O)c2)cnn1 (single isomer, unassigned) [Compound 74E2] | 92% | 104% | 3.6 ×10⁻⁶ cm/s | 63.2 ×10⁻⁶ cm/s | 501 to 10000 nM | 501 to 10000 nM | 18 |  |
